Results: PMC5078040 (Oncotarget, 2016)

Columns and labels:
[1] = target: T1, AAK1 (Homo sapiens, UniProt Q2M2I8); assay: KinomeScan; format: binding; details: 1uM
T1 construct: purchased DiscoveRx KINOMEscan

[2] = target: T2, ABL1(F317I)-phosphorylated (Homo sapiens, UniProt P00519, F317I); assay: KinomeScan; format: binding; details: 1uM
T2 construct: purchased DiscoveRx KINOMEscan

[3] = target: T3, ABL1(T315I)-phosphorylated (Homo sapiens, UniProt P00519, T315I); assay: KinomeScan; format: binding; details: 1uM
T3 construct: purchased DiscoveRx KINOMEscan

[4] = target: T4, ACVR2B (Homo sapiens, UniProt Q13705); assay: KinomeScan; format: binding; details: 1uM
T4 construct: purchased DiscoveRx KINOMEscan

[5] = target: T5, AKT2 (Homo sapiens, UniProt P31751); assay: KinomeScan; format: binding; details: 1uM
T5 construct: purchased DiscoveRx KINOMEscan

[6] = target: T6, BIKE (Homo sapiens, UniProt Q9NSY1); assay: KinomeScan; format: binding; details: 1uM
T6 construct: purchased DiscoveRx KINOMEscan

[7] = target: T7, BMPR1A (Homo sapiens, UniProt P36894); assay: KinomeScan; format: binding; details: 1uM
T7 construct: purchased DiscoveRx KINOMEscan

[8] = target: T8, BRAF(V600E) (Homo sapiens, UniProt P15056, V600E); assay: KinomeScan; format: binding; details: 1uM
T8 construct: purchased DiscoveRx KINOMEscan

[9] = target: T9, CAMK1D (Homo sapiens, UniProt Q8IU85); assay: KinomeScan; format: binding; details: 1uM
T9 construct: purchased DiscoveRx KINOMEscan

[10] = target: T10, CDK7 (Homo sapiens, UniProt P50613); assay: KinomeScan; format: binding; details: 1uM
T10 construct: purchased DiscoveRx KINOMEscan

[11] = target: T11, CDKL5 (Homo sapiens, UniProt O76039); assay: KinomeScan; format: binding; details: 1uM
T11 construct: purchased DiscoveRx KINOMEscan

[12] = target: T12, CIT (Homo sapiens, UniProt O14578); assay: KinomeScan; format: binding; details: 1uM
T12 construct: purchased DiscoveRx KINOMEscan

[13] = target: T13, CSNK1G3 (Homo sapiens, UniProt Q9Y6M4); assay: KinomeScan; format: binding; details: 1uM
T13 construct: purchased DiscoveRx KINOMEscan

[14] = target: T14, EGFR(G719C) (Homo sapiens, UniProt P00533, G719C); assay: KinomeScan; format: binding; details: 1uM
T14 construct: purchased DiscoveRx KINOMEscan

[15] = target: T15, EGFR(L858R) (Homo sapiens, UniProt P00533, L858R); assay: KinomeScan; format: binding; details: 1uM
T15 construct: purchased DiscoveRx KINOMEscan

[16] = target: T16, EIF2AK1 (Homo sapiens, UniProt Q9BQI3); assay: KinomeScan; format: binding; details: 1uM
T16 construct: purchased DiscoveRx KINOMEscan

[17] = target: T17, FLT3(N841I) (Homo sapiens, UniProt P36888, N841I); assay: KinomeScan; format: binding; details: 1uM
T17 construct: purchased DiscoveRx KINOMEscan

[18] = target: T18, FLT3-autoinhibited (Homo sapiens, UniProt P36888); assay: KinomeScan; format: binding; details: 1uM
T18 construct: purchased DiscoveRx KINOMEscan

[19] = target: T19, MAP4K3 (Homo sapiens, UniProt Q8IVH8); assay: KinomeScan; format: binding; details: 1uM
T19 construct: purchased DiscoveRx KINOMEscan

[20] = target: T20, MAPKAPK5 (Homo sapiens, UniProt Q8IW41); assay: KinomeScan; format: binding; details: 1uM
T20 construct: purchased DiscoveRx KINOMEscan

[21] = target: T21, MEK4 (Homo sapiens, UniProt P45985); assay: KinomeScan; format: binding; details: 1uM
T21 construct: purchased DiscoveRx KINOMEscan

[22] = target: T22, MERTK (Homo sapiens, UniProt Q12866); assay: KinomeScan; format: binding; details: 1uM
T22 construct: purchased DiscoveRx KINOMEscan

[23] = target: T23, MINK (Homo sapiens, UniProt Q8N4C8); assay: KinomeScan; format: binding; details: 1uM
T23 construct: purchased DiscoveRx KINOMEscan

[24] = target: T24, NEK3 (Homo sapiens, UniProt P51956); assay: KinomeScan; format: binding; details: 1uM
T24 construct: purchased DiscoveRx KINOMEscan

[25] = target: T25, NEK4 (Homo sapiens, UniProt P51957); assay: KinomeScan; format: binding; details: 1uM
T25 construct: purchased DiscoveRx KINOMEscan

[26] = target: T26, NIK (Homo sapiens, UniProt Q99558); assay: KinomeScan; format: binding; details: 1uM
T26 construct: purchased DiscoveRx KINOMEscan

[27] = target: T27, OSR1 (Homo sapiens, UniProt O95747); assay: KinomeScan; format: binding; details: 1uM
T27 construct: purchased DiscoveRx KINOMEscan

[28] = target: T28, PDGFRA (Homo sapiens, UniProt P16234); assay: KinomeScan; format: binding; details: 1uM
T28 construct: purchased DiscoveRx KINOMEscan

[29] = target: T29, PIK3CA(E542K) (Homo sapiens, UniProt P42336, E542K); assay: KinomeScan; format: binding; details: 1uM
T29 construct: purchased DiscoveRx KINOMEscan

[30] = target: T30, PIP5K1C (Homo sapiens, UniProt O60331); assay: KinomeScan; format: binding; details: 1uM
T30 construct: purchased DiscoveRx KINOMEscan

[31] = target: T31, PKMYT1 (Homo sapiens, UniProt Q99640); assay: KinomeScan; format: binding; details: 1uM
T31 construct: purchased DiscoveRx KINOMEscan

[32] = target: T32, PLK2 (Homo sapiens, UniProt Q9NYY3); assay: KinomeScan; format: binding; details: 1uM
T32 construct: purchased DiscoveRx KINOMEscan

[33] = target: T33, PRKG1 (Homo sapiens, UniProt Q13976); assay: KinomeScan; format: binding; details: 1uM
T33 construct: purchased DiscoveRx KINOMEscan

[34] = target: T34, PYK2 (Homo sapiens, UniProt Q14289); assay: KinomeScan; format: binding; details: 1uM
T34 construct: purchased DiscoveRx KINOMEscan

[35] = target: T35, RET (Homo sapiens, UniProt P07949); assay: KinomeScan; format: binding; details: 1uM
T35 construct: purchased DiscoveRx KINOMEscan

[36] = target: RPS6KA5(Kin.Dom.2-C-terminal) (Homo sapiens, UniProt O75582); assay: KinomeScan; format: binding; details: 1uM
[37] = target: T36, SNARK (Homo sapiens, UniProt Q9H093); assay: KinomeScan; format: binding; details: 1uM
T36 construct: purchased DiscoveRx KINOMEscan

[38] = target: T37, TBK1 (Homo sapiens, UniProt Q9UHD2); assay: KinomeScan; format: binding; details: 1uM
T37 construct: purchased DiscoveRx KINOMEscan

[39] = target: T38, ULK2 (Homo sapiens, UniProt Q8IYT8); assay: KinomeScan; format: binding; details: 1uM
T38 construct: purchased DiscoveRx KINOMEscan

[40] = target: T39, YANK1 (Homo sapiens, UniProt Q8WU08); assay: KinomeScan; format: binding; details: 1uM
T39 construct: purchased DiscoveRx KINOMEscan

[41] = target: T40, ZAK (Homo sapiens, UniProt Q9NYL2); assay: KinomeScan; format: binding; details: 1uM
T40 construct: purchased DiscoveRx KINOMEscan

[42] = tested on: LC3B II; assay: Autophagy (western-blot); format: cell-based, human; details: 12 hours
From the text: Cells were then washed in PBS and lysed in cell lysis buffer and detected by western-blot using LC3B, GAPDH antibody (Cell signaling Technology).

T27 sequence (O95747 whole entry): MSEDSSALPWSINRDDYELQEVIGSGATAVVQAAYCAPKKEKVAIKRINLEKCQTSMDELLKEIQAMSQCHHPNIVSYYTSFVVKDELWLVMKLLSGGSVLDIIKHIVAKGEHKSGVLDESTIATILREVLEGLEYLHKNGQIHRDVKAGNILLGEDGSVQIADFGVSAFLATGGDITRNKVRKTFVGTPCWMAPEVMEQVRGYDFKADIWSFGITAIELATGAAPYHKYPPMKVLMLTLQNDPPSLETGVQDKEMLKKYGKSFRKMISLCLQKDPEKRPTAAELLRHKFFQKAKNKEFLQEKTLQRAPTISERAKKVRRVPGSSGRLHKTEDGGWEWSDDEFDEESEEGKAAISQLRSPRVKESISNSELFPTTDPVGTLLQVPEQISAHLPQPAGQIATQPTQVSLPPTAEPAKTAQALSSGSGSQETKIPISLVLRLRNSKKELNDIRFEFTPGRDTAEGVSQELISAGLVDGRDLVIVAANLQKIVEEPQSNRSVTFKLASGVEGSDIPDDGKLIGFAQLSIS
T4 sequence (Q13705 19-512): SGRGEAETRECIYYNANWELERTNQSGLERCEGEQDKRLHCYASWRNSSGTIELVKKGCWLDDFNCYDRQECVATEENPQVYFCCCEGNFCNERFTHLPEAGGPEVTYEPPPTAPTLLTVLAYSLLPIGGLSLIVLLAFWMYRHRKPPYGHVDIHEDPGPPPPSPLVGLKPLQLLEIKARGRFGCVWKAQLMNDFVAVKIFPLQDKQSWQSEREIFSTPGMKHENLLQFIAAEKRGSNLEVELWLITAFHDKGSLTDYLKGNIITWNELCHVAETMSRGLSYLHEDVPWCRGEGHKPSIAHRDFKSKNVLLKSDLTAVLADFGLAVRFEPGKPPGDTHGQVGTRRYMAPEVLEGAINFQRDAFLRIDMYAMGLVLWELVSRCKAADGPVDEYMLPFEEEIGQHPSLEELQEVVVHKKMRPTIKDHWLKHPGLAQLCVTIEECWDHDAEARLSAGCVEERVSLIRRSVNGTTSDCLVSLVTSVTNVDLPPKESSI
T39 sequence (Q8WU08 whole entry): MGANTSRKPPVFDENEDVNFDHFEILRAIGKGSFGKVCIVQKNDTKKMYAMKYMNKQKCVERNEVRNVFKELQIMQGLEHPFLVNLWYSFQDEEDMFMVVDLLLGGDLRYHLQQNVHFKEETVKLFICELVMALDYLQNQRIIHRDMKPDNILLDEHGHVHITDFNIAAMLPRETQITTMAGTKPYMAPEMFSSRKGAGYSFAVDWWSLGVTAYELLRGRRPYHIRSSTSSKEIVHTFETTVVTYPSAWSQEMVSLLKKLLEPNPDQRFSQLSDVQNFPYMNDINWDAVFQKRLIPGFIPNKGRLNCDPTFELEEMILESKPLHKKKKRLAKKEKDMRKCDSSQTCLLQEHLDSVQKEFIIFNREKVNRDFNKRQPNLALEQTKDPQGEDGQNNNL
T5 sequence (P31751 whole entry): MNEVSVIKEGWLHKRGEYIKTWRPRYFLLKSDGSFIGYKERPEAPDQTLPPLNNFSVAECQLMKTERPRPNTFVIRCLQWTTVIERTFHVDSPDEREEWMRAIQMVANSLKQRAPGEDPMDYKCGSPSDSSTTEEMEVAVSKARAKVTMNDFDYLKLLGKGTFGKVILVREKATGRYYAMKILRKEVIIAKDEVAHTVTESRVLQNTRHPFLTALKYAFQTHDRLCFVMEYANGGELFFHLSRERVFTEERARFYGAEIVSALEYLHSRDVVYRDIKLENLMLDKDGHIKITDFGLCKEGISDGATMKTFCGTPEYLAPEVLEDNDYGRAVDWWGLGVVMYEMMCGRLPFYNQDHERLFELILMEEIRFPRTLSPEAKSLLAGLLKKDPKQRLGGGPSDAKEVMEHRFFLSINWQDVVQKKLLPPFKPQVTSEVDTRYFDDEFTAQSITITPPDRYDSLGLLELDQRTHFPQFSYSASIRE
T22 sequence (Q12866 21-999): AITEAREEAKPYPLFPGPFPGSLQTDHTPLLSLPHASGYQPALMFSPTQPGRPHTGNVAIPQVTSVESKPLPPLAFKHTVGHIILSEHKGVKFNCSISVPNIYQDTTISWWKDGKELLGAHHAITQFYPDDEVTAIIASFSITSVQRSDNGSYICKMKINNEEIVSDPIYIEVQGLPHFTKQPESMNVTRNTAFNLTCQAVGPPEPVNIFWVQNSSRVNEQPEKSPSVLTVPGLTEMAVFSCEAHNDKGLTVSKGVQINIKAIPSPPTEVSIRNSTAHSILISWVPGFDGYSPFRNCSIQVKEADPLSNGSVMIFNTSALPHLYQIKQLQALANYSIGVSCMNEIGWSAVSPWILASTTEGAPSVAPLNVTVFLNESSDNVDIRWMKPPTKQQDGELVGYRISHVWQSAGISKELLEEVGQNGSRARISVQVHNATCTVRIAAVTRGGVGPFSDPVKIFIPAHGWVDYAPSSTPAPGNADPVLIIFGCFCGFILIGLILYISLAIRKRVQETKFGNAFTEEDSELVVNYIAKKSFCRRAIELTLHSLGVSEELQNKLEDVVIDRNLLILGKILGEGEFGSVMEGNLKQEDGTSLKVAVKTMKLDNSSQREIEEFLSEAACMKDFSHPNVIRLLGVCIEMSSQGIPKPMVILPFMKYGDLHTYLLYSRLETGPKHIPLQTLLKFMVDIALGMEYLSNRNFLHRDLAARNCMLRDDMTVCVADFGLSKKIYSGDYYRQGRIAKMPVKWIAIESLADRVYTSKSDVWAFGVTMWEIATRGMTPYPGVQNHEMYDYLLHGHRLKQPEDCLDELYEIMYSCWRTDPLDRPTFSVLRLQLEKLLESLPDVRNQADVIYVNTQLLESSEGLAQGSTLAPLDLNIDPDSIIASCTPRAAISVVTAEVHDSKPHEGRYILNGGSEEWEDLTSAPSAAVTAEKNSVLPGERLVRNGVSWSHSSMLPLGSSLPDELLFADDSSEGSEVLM
T31 sequence (Q99640 whole entry): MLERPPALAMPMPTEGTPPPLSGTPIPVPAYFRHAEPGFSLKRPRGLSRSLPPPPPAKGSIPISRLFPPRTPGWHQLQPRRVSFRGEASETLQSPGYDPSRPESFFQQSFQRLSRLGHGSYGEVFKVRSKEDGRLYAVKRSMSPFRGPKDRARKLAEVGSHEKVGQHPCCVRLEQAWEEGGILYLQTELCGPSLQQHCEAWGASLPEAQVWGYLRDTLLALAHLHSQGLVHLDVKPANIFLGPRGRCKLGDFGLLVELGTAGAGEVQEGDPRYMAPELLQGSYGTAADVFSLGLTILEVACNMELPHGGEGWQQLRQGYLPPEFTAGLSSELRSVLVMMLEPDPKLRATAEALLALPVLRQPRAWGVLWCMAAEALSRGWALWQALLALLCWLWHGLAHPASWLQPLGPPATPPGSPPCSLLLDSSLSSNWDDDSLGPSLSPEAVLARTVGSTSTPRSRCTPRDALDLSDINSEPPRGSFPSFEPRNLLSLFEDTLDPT
T6 sequence (Q9NSY1 whole entry): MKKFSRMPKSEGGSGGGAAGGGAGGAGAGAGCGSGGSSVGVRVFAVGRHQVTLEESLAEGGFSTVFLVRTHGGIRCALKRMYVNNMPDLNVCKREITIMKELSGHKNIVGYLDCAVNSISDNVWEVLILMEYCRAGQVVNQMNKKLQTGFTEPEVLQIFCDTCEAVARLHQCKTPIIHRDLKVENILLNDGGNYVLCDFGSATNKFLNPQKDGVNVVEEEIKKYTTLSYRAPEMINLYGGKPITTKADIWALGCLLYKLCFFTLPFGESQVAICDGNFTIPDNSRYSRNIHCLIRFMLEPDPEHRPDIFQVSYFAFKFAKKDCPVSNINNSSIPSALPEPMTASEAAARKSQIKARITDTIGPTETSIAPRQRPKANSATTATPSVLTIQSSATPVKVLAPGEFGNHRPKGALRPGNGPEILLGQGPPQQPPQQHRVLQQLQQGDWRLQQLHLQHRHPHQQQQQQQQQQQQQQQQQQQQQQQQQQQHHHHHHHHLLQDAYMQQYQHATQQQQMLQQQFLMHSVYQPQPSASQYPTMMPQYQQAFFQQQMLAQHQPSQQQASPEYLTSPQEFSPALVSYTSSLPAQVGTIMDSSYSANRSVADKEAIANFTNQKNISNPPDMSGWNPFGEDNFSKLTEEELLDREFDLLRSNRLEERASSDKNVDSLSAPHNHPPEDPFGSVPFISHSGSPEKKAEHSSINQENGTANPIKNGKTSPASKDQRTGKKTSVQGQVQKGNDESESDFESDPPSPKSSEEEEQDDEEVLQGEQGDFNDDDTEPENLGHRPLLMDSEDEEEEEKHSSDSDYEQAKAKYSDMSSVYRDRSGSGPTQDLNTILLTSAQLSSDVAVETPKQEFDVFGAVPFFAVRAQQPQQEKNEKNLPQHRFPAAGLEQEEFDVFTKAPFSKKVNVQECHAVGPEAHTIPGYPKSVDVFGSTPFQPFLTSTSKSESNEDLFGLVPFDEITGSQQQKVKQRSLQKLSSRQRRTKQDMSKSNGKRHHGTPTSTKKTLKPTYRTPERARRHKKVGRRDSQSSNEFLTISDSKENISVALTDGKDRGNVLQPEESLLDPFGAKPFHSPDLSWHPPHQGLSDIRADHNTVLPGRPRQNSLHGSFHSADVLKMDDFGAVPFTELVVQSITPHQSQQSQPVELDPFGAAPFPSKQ
T10 sequence (P50613 whole entry): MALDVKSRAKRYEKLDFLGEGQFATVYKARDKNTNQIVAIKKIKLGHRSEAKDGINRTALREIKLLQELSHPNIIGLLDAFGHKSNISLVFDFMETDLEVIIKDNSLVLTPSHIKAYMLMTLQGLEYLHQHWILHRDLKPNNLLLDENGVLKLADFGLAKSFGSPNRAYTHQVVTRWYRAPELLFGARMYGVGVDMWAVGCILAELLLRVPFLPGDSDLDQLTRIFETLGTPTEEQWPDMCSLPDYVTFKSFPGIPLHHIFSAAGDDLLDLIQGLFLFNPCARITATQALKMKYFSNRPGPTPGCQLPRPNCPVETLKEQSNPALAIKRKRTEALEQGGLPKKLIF

For `Cc1nc(NC(=O)[C@@H](N)C(C)C)sc1-c1cnc(Cl)c(NS(=O)(=O)c2ccccc2)c1` [PI3KD-IN-015], the “KinomeScan AAK1” value [1] was 100, the “KinomeScan ABL1(F317I)-phosphorylated” value [2] was 89 and the “KinomeScan ABL1(T315I)-phosphorylated” value [3] was 98. The “KinomeScan ACVR2B” value [4] was 100, the “KinomeScan AKT2” value [5] was 86 and the “KinomeScan BIKE” value [6] was 73. The “KinomeScan BMPR1A” value [7] was 84, the “KinomeScan BRAF(V600E)” value [8] was 100 and the “KinomeScan CAMK1D” value [9] was 94. For the same compound, the “KinomeScan CDK7” value [10] was 100, the “KinomeScan CDKL5” value [11] was 87 and the “KinomeScan CIT” value [12] was 100. For the same compound, the “KinomeScan CSNK1G3” value [13] was 96, the “KinomeScan EGFR(G719C)” value [14] was 100 and the “KinomeScan EGFR(L858R)” value [15] was 100. For the same compound, the “KinomeScan EIF2AK1” value [16] was 100, the “KinomeScan FLT3(N841I)” value [17] was 87 and the “KinomeScan FLT3-autoinhibited” value [18] was 100. The “KinomeScan MAP4K3” value [19] was 91, the “KinomeScan MAPKAPK5” value [20] was 82 and the “KinomeScan MEK4” value [21] was 100. For the same compound, the “KinomeScan MERTK” value [22] was 96, the “KinomeScan MINK” value [23] was 100 and the “KinomeScan NEK3” value [24] was 100. For the same compound, the “KinomeScan NEK4” value [25] was 98, the “KinomeScan NIK” value [26] was 83 and the “KinomeScan OSR1” value [27] was 75. The “KinomeScan PDGFRA” value [28] was 94, the “KinomeScan PIK3CA(E542K)” value [29] was 5.4 and the “KinomeScan PIP5K1C” value [30] was 72. The “KinomeScan PKMYT1” value [31] was 100, the “KinomeScan PLK2” value [32] was 83 and the “KinomeScan PRKG1” value [33] was 89. For the same compound, the “KinomeScan PYK2” value [34] was 95, the “KinomeScan RET” value [35] was 100 and the “KinomeScan RPS6KA5(Kin.Dom.2-C-terminal)” value [36] was 100. For the same compound, the “KinomeScan SNARK” value [37] was 97, the “KinomeScan TBK1” value [38] was 100 and the “KinomeScan ULK2” value [39] was 79. For the same compound, the “KinomeScan YANK1” value [40] was 100, the “KinomeScan ZAK” value [41] was 100 and the “autophagy induction (LC3B II)” value ([42]; HT cells and MEC-1 cells) was “significantly increased the production of LC3B II”. For the same compound, the autophagy induction ([42]; MOLM-13 cell) was “no apparent autophagy induction”.
